Reference: patent US9249208B2, “Citrulline peptides derived from fibrin and recognized by rheumatoid arthritis specific autoantibodies, and the use thereof” (Biomerieux, priority 2004, dated 2016)
Where no end group is shown, it is not given here. [ ]: non-standard residue; d: D form. Cit = NC(=O)NCCC[C@H](N)C(=O)O

Legend:
[1] = system: anti-citrullinated protein autoantibodies (ACPAs); experiment: ELISA of reactive citrullinated fibrin peptides with the 20 individual sera of mixtures A and B; format: binding, human; conditions: for Number of positive sera: sera with delta OD not <0.25 out of sera tested (20, or 10 of mixture A only); for delta OD: best coating buffer per peptide
Experimental: The 14 peptides carrying the most reactive epitopes (delta OD≧0.5 for one or other of the mixtures of serum (A and B) with at least one of the three coating buffers) were tested independently with the 20 sera constituting the mixtures A and B, in order to evaluate the reactivity profile of each of these peptides. The tests were carried out by ELISA under the same conditions as in Example 2 above, with the exception that, for each pair of peptides, the coating buffer selected was that that had made it possible to obtain the strongest reactivity with respect to this peptide during the screening (the buffer for which the sum of the delta ODs obtained respectively for the serum mixtures A and B was at a maximum). […] Thus, for each serum, the dilution that made it possible to obtain an OD of 1 by ELISA on deiminated fibrinogen was selected (Nogueira L, 2002, mentioned above). The dilutions ranged from 1/20 to 1/2700.

[2] = system: anti-citrullinated protein autoantibodies (ACPAs); experiment: ELISA of citrullinated/native fibrin peptide pairs with serum mixtures A and B and control mixture (delta OD); format: binding, human; conditions: mean of two determinations
Experimental: Each pair of peptides (citrullinated and noncitrullinated) was assayed by ELISA with a mixture, in equal parts, of 10 sera having no ACPAs (control mixture) and with the 2 mixtures A and B described in Example 1.
Each pair of peptides (native and citrullinated form) was tested on the same plate and a pair of control peptides—citrullinated “filaggrin” peptide cfc6 and its corresponding native peptide cf0 (Schellekens G A, 1998, mentioned above)—was included in each experiment, which made it possible to calculate an inter-assay coefficient of variation and to perform corrections.
All the incubations were carried out for 1 h at 4° C. and were followed by washing in PBS-0.1% Tween. The peroxidase activity was visualized with a solution of ortho-phenylenediamine (2 mg/ml—Sigma) in hydrogen peroxide (0.03%—Sigma). The reaction was stopped after 5 minutes by adding 4M sulfuric acid, and the optical density (OD) at 492 nm was measured by virtue of an automatic spectrophotometer (Multiskan, Thermo Labsystems).
The specific reactivity of the mixtures of sera with regard to the citrullinated peptides corresponded to the difference between the OD obtained with the citrullinated peptide and that obtained with the corresponding native peptide (delta OD). The results correspond to the mean of two determinations. Any citrullinated peptide making it possible to obtain a delta OD of greater than 0.250 for at least one of the two mixtures A and B after coating in at least one of the three buffers, was considered to be reactive.

[3] = Mixture A of sera 1/50, coating buffer PBS pH 7.4
[4] = Mixture A of sera 1/50, coating buffer acetate pH 5.0
[5] = Mixture A of sera 1/50, coating buffer carbonate pH 9.0
[6] = Mixture B of sera 1/50, coating buffer PBS pH 7.4
[7] = Mixture B of sera 1/50, coating buffer acetate pH 5.0
[8] = Mixture B of sera 1/50, coating buffer carbonate pH 9.0

Substance | Number of positive sera [1] | delta OD ([1]; serum 97.0311, dilution 1/200) | delta OD ([1]; serum 97.0794, dilution 1/50) | delta OD ([1]; serum 97.1474, dilution 1/20) | delta OD (citrullinated minus native peptide, 492 nm) [2, 3] | delta OD (citrullinated minus native peptide, 492 nm) [2, 4] | delta OD (citrullinated minus native peptide, 492 nm) [2, 5] | delta OD (citrullinated minus native peptide, 492 nm) [2, 6] | delta OD (citrullinated minus native peptide, 492 nm) [2, 7] | delta OD (citrullinated minus native peptide, 492 nm) [2, 8] | other results
α561-575Cit573: citrullinated synthetic peptide, fibrin α-chain residues 561-575 (SSHHPGIAEFPS[Cit]GK) | 5/20 | 0.30 | 1.95 | 0.71 | 0.30 | 0.05 | 0.01 | 0.52 | 0.14 | 0.17 | delta OD ([1]; serum 97.0459, dilution 1/60): 0.38; delta OD ([1]; serum 97.1548, dilution 1/60): 0.53
α36-50Cit38,42: citrullinated synthetic peptide, fibrin α-chain residues 36-50; fits SEQ ID NO: 2 GPX1VVEX2HQSACKDS (GP[Cit]VVE[Cit]HQSACKDS) | 12/20 | 0.71 | 3.43 | 1.93 | 2.69 | 4.00 | 3.43 | 2.65 | 4.27 | 2.64 | delta OD ([1]; serum 95.0256, dilution 1/35): 2.35; delta OD ([1]; serum 97.0323, dilution 1/120): 1.87; delta OD ([1]; serum 97.0388, dilution 1/50): 3.32; delta OD ([1]; serum 97.0459, dilution 1/60): 3.55; delta OD ([1]; serum 97.0524, dilution 1/200): 3.39; delta OD ([1]; serum 97.0530, dilution 1/50): 2.97; delta OD ([1]; serum 97.1436, dilution 1/150): 3.30; delta OD ([1]; serum 97.1715, dilution 1/300): 3.50; delta OD ([1]; serum 97.1795, dilution 1/50): 2.29
α621-635Cit621,627,630: citrullinated synthetic peptide, fibrin α-chain residues 621-635; fits SEQ ID NO: 12 X1GHAKSX2PVX3GIHTS ([Cit]GHAKS[Cit]PV[Cit]GIHTS) | 10/20 | 0.37 |  | 0.59 | 1.57 | 0.25 | 1.17 | 1.51 | 0.18 | 1.20 | delta OD ([1]; serum 97.0169, dilution 1/400): 0.80; delta OD ([1]; serum 97.0244, dilution 1/2700): 0.50; delta OD ([1]; serum 97.0388, dilution 1/50): 2.71; delta OD ([1]; serum 97.0468, dilution 1/700): 0.81; delta OD ([1]; serum 97.0796, dilution 1/500): 0.69; delta OD ([1]; serum 97.0907, dilution 1/300): 1.04; delta OD ([1]; serum 97.1210, dilution 1/300): 0.37; delta OD ([1]; serum 97.1548, dilution 1/60): 3.29
α259-273Cit263,271: citrullinated synthetic peptide, fibrin α-chain residues 259-273 (second series) (MELE[Cit]PGGNEIT[Cit]GG) | 13/20 | 0.29 |  | 0.39 | 0.60 | 0.14 | 0.12 | 0.69 | 0.21 | 0.20 | delta OD ([1]; serum 97.0468, dilution 1/700): 0.32
α501-515Cit510,512: citrullinated synthetic peptide, fibrin α-chain residues 501-515; fits SEQ ID NO: 3 SGIGTLDGFX1HX2HPD (SGIGTLDGF[Cit]H[Cit]HPD) | 9/20 |  | 3.30 |  | 0.92 | 0.16 | 0.15 | 2.60 | 0.72 | 0.79 | delta OD ([1]; serum 95.0256, dilution 1/35): 2.37; delta OD ([1]; serum 97.0323, dilution 1/120): 3.23; delta OD ([1]; serum 97.0388, dilution 1/50): 2.88; delta OD ([1]; serum 97.0506, dilution 1/75): 0.44; delta OD ([1]; serum 97.0524, dilution 1/200): 2.85; delta OD ([1]; serum 97.0530, dilution 1/50): 0.69; delta OD ([1]; serum 97.1436, dilution 1/150): 2.80; delta OD ([1]; serum 97.1715, dilution 1/300): 1.79
α411-425Cit425: citrullinated synthetic peptide, fibrin α-chain residues 411-425 (GTFEEVSGNVSPGT[Cit]) | 1/20 |  |  |  | 0.16 | 0.09 | 0.56 | 0.66 | 0.38 | 0.43 | delta OD ([1]; serum 97.1210, dilution 1/300): 0.84
α546-560Cit547: citrullinated synthetic peptide, fibrin α-chain residues 546-560 (S[Cit]GSESGIFTNTKES) | 2/10 |  |  |  | 0.74 | 0.38 | 0.33 | 0.15 | 0.05 | 0.16 | delta OD ([1]; serum 97.0530, dilution 1/50): 0.44; delta OD ([1]; serum 97.0796, dilution 1/500): 1.18
β281-295Cit285,294: citrullinated synthetic peptide, fibrin β-chain residues 281-295 (second series) (VIQN[Cit]QDGSVDFG[Cit]K) | 6/20 |  | 0.26 | 0.36 | 0.60 | 0.12 | 0.61 | 0.75 | 0.11 | 0.71 | delta OD ([1]; serum 97.0323, dilution 1/120): 1.16; delta OD ([1]; serum 97.0459, dilution 1/60): 2.22; delta OD ([1]; serum 97.0506, dilution 1/75): 1.80; delta OD ([1]; serum 97.0524, dilution 1/200): 0.25
α246-260Cit258: citrullinated synthetic peptide, fibrin α-chain residues 246-260 (PEWKALTDMPQM[Cit]ME) |  |  |  |  | 0.00 | 0.04 | 0.00 | 0.25 | 0.27 | 0.33 | 
α366-380Cit367: citrullinated synthetic peptide, fibrin α-chain residues 366-380 (E[Cit]GSAGHWTSESSVS) |  |  |  |  | 0.37 | 0.28 | 0.26 | 0.04 | 0.00 | 0.08 | 
β420-434Cit421: citrullinated synthetic peptide, fibrin β-chain residues 420-434 (P[Cit]KQCSKEDGGGWWY) |  |  |  |  | 0.48 | 0.36 | 0.44 | 0.00 | 0.00 | 0.00 | 
α396-410Cit404: citrullinated synthetic peptide, fibrin α-chain residues 396-410 (DSPGSGNA[Cit]PNNPDW) |  |  |  |  | 0.02 | 0.04 | 0.43 | 0.17 | 0.15 | 0.20 | 
